Results published in US9708314B2, “Heterocyclic amide compound” (NISSAN CHEMICAL INDUSTRIES, LTD., priority 2013, dated 2017).

Experiments:
Assay type in all cases: in vivo
Cyperus difformis = test: Test Example 3: herbicidal effect by application to foliage (Wagner pot, water depth 0.1-0.5 cm); conditions: Nineteenth Table; for E (herbicidal effect grade): application to foliage
How it was run: (§1)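 Alluvial soil in 1/10000 are Wagner pots, sown and grown 14 days in a 25–30 °C greenhouse. An emulsifiable concentrate diluted in water to the set dose (g/ha) was sprayed on stems and leaves. Effect scored three weeks later on a 0–5 scale: 5 = ≥90% herbicidal ratio, 0 = ≤5%.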

[1] = tested on: Echinochloa crus-galli var. crus-galli; test: as above; conditions: Nineteenth Table; for H (herbicidal effect grade): application to foliage
How it was run: as §1

Leptochloa chinensis = test: as above; conditions: Nineteenth Table; for D (herbicidal effect grade): application to foliage
How it was run: as §1

[2] = tested on: directly sowed Oryza sativa; test: Test Example 3: effect on crop by application to foliage (Wagner pot, water depth 0.1-0.5 cm); conditions: Nineteenth Table; for b (effect on crop grade): application to foliage
How it was run: as §1

Abutilon theophrasti = test: Test Example 4: herbicidal effect by application to foliage (diluvial soil, plastic box); conditions: for M (Abutilon theophrasti) herbicidal effect grade: foliage application
How it was run: (§2)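 Scores run from 0 (herbicidal ratio ≤5%) to 5 (≥90%, almost fully withered) and were assessed three weeks after foliar spraying. Seedlings had been raised for 14 days at 25-30° C in sterilized diluvial soil before treatment, with the emulsion diluted in water to the stated g/ha dose.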

Alopecurus myosuroides = test: as above; conditions: for J (Alopecurus myosuroides) herbicidal effect grade: foliage application
How it was run: as §2

Amaranthus retroflexus = test: as above; conditions: for N (Amaranthus retroflexus) herbicidal effect grade: foliage application
How it was run: as §2

Apera spica-venti. = test: as above; conditions: for L (Apera spica-venti.) herbicidal effect grade: foliage application
How it was run: as §2

Avena fatua = test: as above; conditions: for I (Avena fatua) herbicidal effect grade: foliage application
How it was run: as §2

Chenopodium album = test: as above; conditions: for O (Chenopodium album) herbicidal effect grade: foliage application
How it was run: as §2

Digitaria ciliaris = test: as above; conditions: for F (Digitaria ciliaris) herbicidal effect grade: foliage application
How it was run: as §2

[3] = tested on: Echinochloa crus-galli var. crus-galli; test: as above; conditions: for H (Echinochloa crus-galli var. crus-galli) herbicidal effect grade: foliage application
How it was run: as §2

Galium spurium = test: as above; conditions: for Q (Galium spurium) herbicidal effect grade: foliage application
How it was run: as §2

Lolium multiflorum Lam. = test: as above; conditions: for K (Lolium multiflorum Lam.) herbicidal effect grade: foliage application
How it was run: as §2

Setaria viridis = test: as above; conditions: for G (Setaria viridis) herbicidal effect grade: foliage application
How it was run: as §2

Stellaria media = test: as above; conditions: for P (Stellaria media) herbicidal effect grade: foliage application
How it was run: as §2

Veronica persica = test: as above
How it was run: as §2

[4] = tested on: Beta vulgaris ssp. vulgaris; test: Test Example 4: effect on crop by application to foliage (diluvial soil, plastic box); conditions: for f (Beta vulgaris ssp. vulgaris) effect on crop grade: foliage application
How it was run: as §2

Brassica campestris L. = test: as above; conditions: for g (Brassica campestris L.) effect on crop grade: foliage application
How it was run: as §2

Glycine max = test: as above
How it was run: as §2

Triticum aestivum = test: as above; conditions: for e (Triticum aestivum) effect on crop grade: foliage application
How it was run: as §2

Zea mays = test: as above
How it was run: as §2

[5] = tested on: directly sowed Oryza sativa; test: as above
How it was run: as §2

[6] = application herbicide amount 320 g/ha
[7] = application to foliage, application herbicide amount 320 g/ha
[8] = Application herbicide amount 320 g/ha
[9] = Application herbicide amount 320 g/ha, foliage application
[10] = application herbicide amount 131 g/ha

Cc1nnc(NC(=O)c2ccc(C(F)(F)F)n3c(COc4ccccc4)nnc23)o1 [1-025]
E (Cyperus difformis) herbicidal ratio grade (Cyperus difformis; [6]): 2 (Herbicidal ratio of 20% or more and less than 40%) | H (Echinochloa crus-galli var. crus-galli) herbicidal ratio grade [1, 6]: 4 (Herbicidal ratio of 70% or more and less than 90%) | D (Leptochloa chinensis) herbicidal ratio grade (Leptochloa chinensis; [6]): 3 (Herbicidal ratio of 40% or more and less than 70%) | b (directly sowed Oryza sativa) effect on crop grade [2, 6]: 2 (Herbicidal ratio of 20% or more and less than 40%) | M (Abutilon theophrasti) herbicidal effect (Abutilon theophrasti; [7]): 5 (Herbicidal ratio of 90% or more (almost completely withered)) | J (Alopecurus myosuroides) herbicidal effect (Alopecurus myosuroides; [7]): 0 (Herbicidal ratio of 5% or less (almost no effect)) | N (Amaranthus retroflexus) herbicidal effect (Amaranthus retroflexus; [7]): 3 (Herbicidal ratio of 40% or more and less than 70%) | L (Apera spica-venti.) herbicidal effect (Apera spica-venti.; [7]): 0 (Herbicidal ratio of 5% or less (almost no effect)) | I (Avena fatua) herbicidal effect (Avena fatua; [7]): 0 (Herbicidal ratio of 5% or less (almost no effect)) | O (Chenopodium album) herbicidal effect (Chenopodium album; [7]): 5 (Herbicidal ratio of 90% or more (almost completely withered)) | F (Digitaria ciliaris) herbicidal effect (Digitaria ciliaris; [7]): 3 (Herbicidal ratio of 40% or more and less than 70%) | H (Echinochloa crus-galli var. crus-galli) herbicidal effect [3, 7]: 4 (Herbicidal ratio of 70% or more and less than 90%) | Q (Galium spurium) herbicidal effect (Galium spurium; [7]): 3 (Herbicidal ratio of 40% or more and less than 70%) | K (Lolium multiflorum Lam.) herbicidal effect (Lolium multiflorum Lam.; [7]): 0 (Herbicidal ratio of 5% or less (almost no effect)) | G (Setaria viridis) herbicidal effect (Setaria viridis; [7]): 2 (Herbicidal ratio of 20% or more and less than 40%) | P (Stellaria media) herbicidal effect (Stellaria media; [7]): 4 (Herbicidal ratio of 70% or more and less than 90%) | R (Veronica persica) herbicidal effect (Veronica persica; [7]): 3 (Herbicidal ratio of 40% or more and less than 70%) | f (Beta vulgaris ssp. vulgaris) effect on crop [4, 7]: 5 (Herbicidal ratio of 90% or more (almost completely withered)) | g (Brassica campestris L.) effect on crop (Brassica campestris L.; [7]): 2 (Herbicidal ratio of 20% or more and less than 40%) | c (Glycine max) effect on crop (Glycine max; [7]): 0 (Herbicidal ratio of 5% or less (almost no effect)) | e (Triticum aestivum) effect on crop (Triticum aestivum; [7]): 0 (Herbicidal ratio of 5% or less (almost no effect)) | b (Zea mays) effect on crop (Zea mays; [7]): 0 (Herbicidal ratio of 5% or less (almost no effect)) | d (directly sowed Oryza sativa) effect on crop [5, 7]: 3 (Herbicidal ratio of 40% or more and less than 70%)

CC(C)c1nnc2c(C(=O)Nc3nnc(CS(C)(=O)=O)o3)ccc(C(F)(F)F)n12 [1-142]
E (herbicidal effect grade) (Cyperus difformis; [6]): 0 (Herbicidal ratio of 5% or less (almost no effect)) | H (herbicidal effect grade) [1, 6]: 3 (Herbicidal ratio of 40% or more and less than 70%) | D (herbicidal effect grade) (Leptochloa chinensis; [6]): 1 (Herbicidal ratio of 5% or more and less than 20%) | b (effect on crop grade) [2, 6]: 0 (Herbicidal ratio of 5% or less (almost no effect)) | M (Abutilon theophrasti) herbicidal effect grade (Abutilon theophrasti; [8]): 0 (Herbicidal ratio of 5% or less (almost no effect)) | J (Alopecurus myosuroides) herbicidal effect grade (Alopecurus myosuroides; [8]): 0 (Herbicidal ratio of 5% or less (almost no effect)) | N (Amaranthus retroflexus) herbicidal effect grade (Amaranthus retroflexus; [8]): 1 (Herbicidal ratio of 5% or more and less than 20%) | L (Apera spica-venti.) herbicidal effect grade (Apera spica-venti.; [8]): 0 (Herbicidal ratio of 5% or less (almost no effect)) | I (Avena fatua) herbicidal effect grade (Avena fatua; [8]): 0 (Herbicidal ratio of 5% or less (almost no effect)) | O (Chenopodium album) herbicidal effect grade (Chenopodium album; [8]): 4 (Herbicidal ratio of 70% or more and less than 90%) | F (Digitaria ciliaris) herbicidal effect grade (Digitaria ciliaris; [8]): 1 (Herbicidal ratio of 5% or more and less than 20%) | H (Echinochloa crus-galli var. crus-galli) herbicidal effect grade [3, 8]: 3 (Herbicidal ratio of 40% or more and less than 70%) | Q (Galium spurium) herbicidal effect grade (Galium spurium; [8]): 1 (Herbicidal ratio of 5% or more and less than 20%) | K (Lolium multiflorum Lam.) herbicidal effect grade (Lolium multiflorum Lam.; [8]): 0 (Herbicidal ratio of 5% or less (almost no effect)) | G (Setaria viridis) herbicidal effect grade (Setaria viridis; [8]): 0 (Herbicidal ratio of 5% or less (almost no effect)) | P (Stellaria media) herbicidal effect grade (Stellaria media; [8]): 2 (Herbicidal ratio of 20% or more and less than 40%) | R (Veronica persica) herbicidal effect grade (Veronica persica; [9]): 0 (Herbicidal ratio of 5% or less (almost no effect)) | f (Beta vulgaris ssp. vulgaris) effect on crop grade [4, 8]: 3 (Herbicidal ratio of 40% or more and less than 70%) | g (Brassica campestris L.) effect on crop grade (Brassica campestris L.; [8]): 0 (Herbicidal ratio of 5% or less (almost no effect)) | d (Glycine max) effect on crop grade (Glycine max; [9]): 0 (Herbicidal ratio of 5% or less (almost no effect)) | e (Triticum aestivum) effect on crop grade (Triticum aestivum; [8]): 0 (Herbicidal ratio of 5% or less (almost no effect)) | c (Zea mays) effect on crop grade (Zea mays; [9]): 0 (Herbicidal ratio of 5% or less (almost no effect))

CC(C)c1nnc2c(C(=O)Nc3nnnn3C)ccc(-c3ccccc3)n12 [2-055]
E (herbicidal effect grade) (Cyperus difformis; [10]): 0 (Herbicidal ratio of 5% or less (almost no effect)) | H (herbicidal effect grade) [1, 10]: 2 (Herbicidal ratio of 20% or more and less than 40%) | D (herbicidal effect grade) (Leptochloa chinensis; [10]): 0 (Herbicidal ratio of 5% or less (almost no effect)) | b (effect on crop grade) [2, 10]: 0 (Herbicidal ratio of 5% or less (almost no effect)) | M (Abutilon theophrasti) herbicidal effect grade (Abutilon theophrasti; 131 g/ha): 4 (Herbicidal ratio of 70% or more and less than 90%) | J (Alopecurus myosuroides) herbicidal effect grade (Alopecurus myosuroides; 131 g/ha): 0 (Herbicidal ratio of 5% or less (almost no effect)) | N (Amaranthus retroflexus) herbicidal effect grade (Amaranthus retroflexus; 131 g/ha): 3 (Herbicidal ratio of 40% or more and less than 70%) | L (Apera spica-venti.) herbicidal effect grade (Apera spica-venti.; 131 g/ha): 0 (Herbicidal ratio of 5% or less (almost no effect)) | I (Avena fatua) herbicidal effect grade (Avena fatua; 131 g/ha): 0 (Herbicidal ratio of 5% or less (almost no effect)) | O (Chenopodium album) herbicidal effect grade (Chenopodium album; 131 g/ha): 5 (Herbicidal ratio of 90% or more (almost completely withered)) | F (Digitaria ciliaris) herbicidal effect grade (Digitaria ciliaris; 131 g/ha): 0 (Herbicidal ratio of 5% or less (almost no effect)) | H (Echinochloa crus-galli var. crus-galli) herbicidal effect grade ([3]; 131 g/ha): 0 (Herbicidal ratio of 5% or less (almost no effect)) | Q (Galium spurium) herbicidal effect grade (Galium spurium; 131 g/ha): 0 (Herbicidal ratio of 5% or less (almost no effect)) | K (Lolium multiflorum Lam.) herbicidal effect grade (Lolium multiflorum Lam.; 131 g/ha): 0 (Herbicidal ratio of 5% or less (almost no effect)) | G (Setaria viridis) herbicidal effect grade (Setaria viridis; 131 g/ha): 0 (Herbicidal ratio of 5% or less (almost no effect)) | P (Stellaria media) herbicidal effect grade (Stellaria media; 131 g/ha): 4 (Herbicidal ratio of 70% or more and less than 90%) | f (Beta vulgaris ssp. vulgaris) effect on crop grade ([4]; 131 g/ha): 1 (Herbicidal ratio of 5% or more and less than 20%) | g (Brassica campestris L.) effect on crop grade (Brassica campestris L.; 131 g/ha): 0 (Herbicidal ratio of 5% or less (almost no effect)) | c (Glycine max) effect on crop grade (Glycine max; foliage application, 131 g/ha): 0 (Herbicidal ratio of 5% or less (almost no effect)) | e (Triticum aestivum) effect on crop grade (Triticum aestivum; 131 g/ha): 0 (Herbicidal ratio of 5% or less (almost no effect)) | b (Zea mays) effect on crop grade (Zea mays; foliage application, 131 g/ha): 0 (Herbicidal ratio of 5% or less (almost no effect)) | d (directly sowed Oryza sativa) effect on crop grade ([5]; foliage application, 131 g/ha): 1 (Herbicidal ratio of 5% or more and less than 20%)
